Measured values taken from patent US11999746B2, “Compounds” (GlaxoSmithKline Intellectual Property Development Limited, priority 2014, dated 2024).

Key:
Lp-PLA2 in human plasma = target: T1, Lp-PLA2 in human plasma (Homo sapiens, UniProt Q13093); experiment: (3a) Lp-PLA2 human plasma Thio-PAF assay; format: biochemical; settings: (3a) Thio-PAF assay, pooled human plasma; Examples 1-265 and 413-430 were tested here; read-out: pIC50 in the Lp-PLA2 human plasma assay (converted)
T1 construct: from tissue; host or cells: pooled human plasma
T1 sequence (Q13093 22-441): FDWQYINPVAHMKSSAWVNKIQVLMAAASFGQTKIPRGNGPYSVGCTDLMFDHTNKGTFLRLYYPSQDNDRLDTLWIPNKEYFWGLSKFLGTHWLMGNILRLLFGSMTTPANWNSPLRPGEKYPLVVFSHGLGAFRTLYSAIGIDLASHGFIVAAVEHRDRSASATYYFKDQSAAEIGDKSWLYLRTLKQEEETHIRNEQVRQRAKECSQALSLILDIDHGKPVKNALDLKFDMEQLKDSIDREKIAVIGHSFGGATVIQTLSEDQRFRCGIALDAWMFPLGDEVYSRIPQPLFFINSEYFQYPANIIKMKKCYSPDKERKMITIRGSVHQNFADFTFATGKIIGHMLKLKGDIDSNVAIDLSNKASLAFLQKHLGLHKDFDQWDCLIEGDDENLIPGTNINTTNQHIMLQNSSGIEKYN
From the text: (3) Lipoprotein-Associated Phospholipase A2 (Lp-PLA2) Human Plasma Assay
The human plasma assay utilizes a thioester analog of PAF (phosphatidylcholine), where hydrolysis yields to the formation of a phospholipid containing a free thiol group. The amount of thiol is quantitated continuously by reacting with CPM (7-diethylamino-3-(4′-maleimidylphenyl)-4-methylcoumarin), a maleimide which increases in fluoresence after Michael addition of thiols. This assay may detect the activity of Lp-PLA2 in human plasma, as determined by specific inhibition by Lp-PLA2 inhibitors.
The thio-PAF assay was run as a quenched 15 μL assay. Compounds source plate was prepared by making 1:3 (by volume) serial dilution of the compounds into pure DMSO on 384-well microplate. 0.01 μL of compounds on compound source plate were transferred to 384 well Greiner 784076 (black) low-volume plates by ECHO liquid dispenser. 8 μL pooled human plasma, which was previously aliquoted and frozen, was added. Plates were centrifuged for 10 sec at 500 rpm. After 30 minutes preincubation, 2 μL of substrate solution comprising 2.5 mM 2-thio-PAF [from ethanol stock], 32 μM CPM [from a DMSO stock] and 3.2 mM NEM (N-ethylmaleimide) [made fresh daily in DMSO] in assay buffer of 50 mM HEPES, pH 7.4, 150 mM NaCl, 1 mM CHAPS was added to 384 well Greiner 784076 (black) low-volume plates by BRAVO liquid handling station. After 2 mins, reaction was quenched with 5 μL of 5% aqueous trifluoroacetic acid (TFA). Plates were covered to protect from light and incubated for 40 min at room temperature. Plates were read at ex: 380/em: 485 using Envision microplate reader. PIC50 data, curve and QC analysis were conducted by using XLFit module in Excel.

[1] = target: T2, recombinant human Lp-PLA2 (Homo sapiens, UniProt Q13093); experiment: (1a) PED6 assay, recombinant human Lp-PLA2 (rhLp-PLA2); format: biochemical; settings: Examples 1-167 and 413-430 were tested here, one experiment or average of multiple experiments, read-out: rhLp-PLA2 (pIC50) (converted)
T2 sequence (Q13093 22-441): T1 sequence (Q13093 22-441)
From the text: (1) Recombinant Human Lp-PLA2 Assays (rhLp-PLA2)
N-((6-(2,4-Dinitrophenyl)amino)-hexanoyl)-2-(4,4-difluoro-5,7-dimethyl-4-bora-3a,4a-diaza-s-indacene-3-pentanoyl)-1-hexadecanoyl-sn-glycero-3-phosphoethanolamine, triethylammonium salt (PED6) is a commercially available fluorescently-labeled phospholipid, which is commercially available from Invitrogene and Molecular Probes. There is a quenching […] and a Bodipy fluorescein (FL) group in the sn2 position. Upon cleavage with Lp-PLA2, the Bodipy FL group is liberated and then may result in an increase in fluorescence. Inhibitors of Lp-PLA2 therefore prevent this cleavage and no fluorescent increase is observed.
The PED6 assay was run as an unquenched 10 μL assay. The source plate containing the compounds to be tested was prepared by making 1:3 (by volume) serial dilution of the compounds within DMSO on 384-well microplate. Then, 0.01 μL of the compounds on compound source plate were transferred into 384 well Greiner 784076 (black) plates using ECHO liquid dispenser. 5 μL of recombinant human Lp-PLA2 enzyme (4 nM) rhLp-PLA2 in assay buffer of 50 mM HEPES, pH 7.4, 150 mM NaCl, 1 mM CHAPS) was added to each well of the plate. Plates were centrifuged for 10 sec at 500 rpm. After 30 minutes preincubation, 5 μL of substrate (4 μM PED6 [from 5 mM DMSO stock] in assay buffer of 50 mM HEPES, pH 7.4, 150 mM NaCl, 1 mM CHAPS) was added to 384 well Greiner 784076 (black) plates. Plates were centrifuged for 10 sec at 500 rpm. The plate was covered to protect it from light and incubated for 20 min at room temperature. The plates were read for fluorescence intensity at ex: 480/em: 540 using ViewLux microplate imager for Envision spectrofluroimeters. pIC50 data, curve and QC analysis was conducted by using XL fit module in Excel.

Which IC50 (Lp-PLA2 in human plasma) does the source give for `O=c1nc(OCc2cc(F)c(Oc3ccnc(C(F)(F)F)c3)c(F)c2)cc2n1CC1OCCCN21` (single isomer, unassigned) [Example E162, 7-((3,5-difluoro-4-((2-(trifluoromethyl)pyridin-4-yl)oxy)benzyl)oxy)-3,4,11,11a-tetrahydropyrimido[6′,1′:2,3]imidazo[5,1-b][1,3]oxazin-9(2H)-one] here?
Its IC50 is ≤ 100 nM.

What about the IC50 [1] of the same compound?
Its IC50 is ≤ 1 nM.

How did the IC50 (Lp-PLA2 in human plasma) turn out when `O=c1nc(OCc2cc(F)c(Oc3ccnc(C(F)(F)F)c3)c(F)c2)cc2n1CC1OCCCN21` (single isomer, unassigned) [Example E163, 7-((3,5-difluoro-4-((2-(trifluoromethyl)pyridin-4-yl)oxy)benzyl)oxy)-3,4,11,11a-tetrahydropyrimido[6′,1′:2,3]imidazo[5,1-b][1,3]oxazin-9(2H)-one] was run?
Its IC50 is ≤ 10000 nM.

What about the IC50 [1] of the same compound?
Its IC50 is ≤ 100 nM.

With `O=c1nc(OCc2cc(F)c(Oc3ccnc(C(F)(F)F)c3)c(F)c2)cc2n1CC1OCCN21` (single isomer, unassigned) [Example E164, 6-((3,5-difluoro-4-((2-(trifluoromethyl)pyridin-4-yl)oxy)benzyl)oxy)-10,10a-dihydro-2H-oxazolo[3′,2′:3,4]imidazo[1,2-c]pyrimidin-8(3H)-one] as the compound, how does the IC50 (Lp-PLA2 in human plasma) read?
The IC50 was ≤ 100 nM.

And the IC50 [1]?
Its IC50 is ≤ 1 nM.

`O=c1nc(OCc2cc(F)c(Oc3ccnc(C(F)(F)F)c3)c(F)c2)cc2n1CC1OCCN21` (single isomer, unassigned) [Example E165, 6-((3,5-difluoro-4-((2-(trifluoromethyl)pyridin-4-yl)oxy)benzyl)oxy)-10,10a-dihydro-2H-oxazolo[3′,2′:3,4]imidazo[1,2-c]pyrimidin-8(3H)-one] was tested. Which IC50 (Lp-PLA2 in human plasma) did it give?
The IC50 was ≤ 100 nM.

What about the IC50 [1] of the same compound?
The IC50 was ≤ 100 nM.

`CN1c2cc(OCc3cccc(F)c3)nc(=O)n2CC12CCC2` [Example 413] was tested. Which IC50 (Lp-PLA2 in human plasma) did it give?
The IC50 was ≤ 10000 nM.

And the IC50 [1]?
The IC50 was ≤ 100 nM.

How did the IC50 (Lp-PLA2 in human plasma) turn out when `CN1c2cc(OCc3cc(F)c(F)c(F)c3)nc(=O)n2CC12CCCC2` [Example 414, 1′-methyl-7′-((3,4,5-trifluorobenzyl)oxy)-1′H-spiro[cyclopentane-1,2′-imidazo[1,2-c]pyrimidin]-5′(3′H)-one] was run?
Its IC50 is ≤ 100 nM.

What about the IC50 [1] of the same compound?
The IC50 was ≤ 100 nM.

With `CN1c2cc(OCc3cc(F)c(F)cc3F)nc(=O)n2CC12CCCC2` [Example 415, 1-methyl-7′-((2,4,5-trifluorobenzyl)oxy)-1′H-spiro[cyclopentane-1,2′-imidazo[1,2-c]pyrimidin]-5′(3′H)-one] as the compound, how does the IC50 (Lp-PLA2 in human plasma) read?
Its IC50 is ≤ 10000 nM.

And the IC50 [1]?
The IC50 was ≤ 100 nM.

Which results are given for `CN1c2cc(OCc3ccc(F)cc3F)nc(=O)n2CC12CCC2` [Example 416, 7′4(2,4-difluorobenzyhoxy)-1-methyl-1H-spiro[cyclobutane-1,2′-imidazo[1,2-c]pyrimidin]-5′(3′H)-one]?
IC50 (Lp-PLA2 in human plasma): ≤ 10000 nM; IC50 [1]: ≤ 100 nM

Which IC50 (Lp-PLA2 in human plasma) does the source give for `CN1c2cc(OCc3cccc(F)c3)nc(=O)n2CC12CCCCC2` [Example 417] here?
The IC50 was ≤ 10000 nM.

And the IC50 [1]?
The IC50 was ≤ 100 nM.

Which IC50 (Lp-PLA2 in human plasma) does the source give for `CN1c2cc(OCc3cccc(F)c3)nc(=O)n2CC12CCCC2` [Example 418] here?
The IC50 was ≤ 100 nM.

And the IC50 [1]?
Its IC50 is ≤ 100 nM.

Which results are given for `CN1c2cc(OCc3ccc(F)cc3F)nc(=O)n2CC12CCCC2` [Example 419, 7′4(2,4-difluorobenzyhoxy)-1-methyl-1H-spiro[cyclopentane-1,2′-imidazo[1,2-c]pyrimidin]-5′(3′H)-one]?
IC50 (Lp-PLA2 in human plasma): ≤ 10000 nM; IC50 [1]: ≤ 100 nM

For `CN1c2cc(OCc3cccc(F)c3F)nc(=O)n2CC12CCC2` [Example 420, 7′4(2,3-difluorobenzyhoxy)-1-methyl-1H-spiro[cyclobutane-1,2′-imidazo[1,2-c]pyrimidin]-5′(3′H)-one], which IC50 (Lp-PLA2 in human plasma) is on record?
Its IC50 is ≤ 10000 nM.

And the IC50 [1]?
The IC50 was ≤ 100 nM.

`CN1c2cc(OCc3cc(F)c(F)c(F)c3)nc(=O)n2CC12CCCCC2` [Example 422, 1′-methyl-7′-((3,4,5-trifluorobenzyl)oxy)-1′H-spiro[cyclohexane-1,2′-imidazo[1,2-c]pyrimidin]-5′(3′H)-one] was tested. Which IC50 (Lp-PLA2 in human plasma) did it give?
The IC50 was ≤ 10000 nM.

What about the IC50 [1] of the same compound?
Its IC50 is ≤ 100 nM.

How did the IC50 (Lp-PLA2 in human plasma) turn out when `CN1c2cc(OCc3cc(F)c(F)c(F)c3)nc(=O)n2CC12CCC2` [Example 423, 1′-methyl-7′-((3,4,5-trifluorobenzyl)oxy)-1′H-spiro[cyclobutane-1,2′-imidazo[1,2-c]pyrimidin]-5′(3′H)-one] was run?
Its IC50 is ≤ 100 nM.

And the IC50 [1]?
Its IC50 is ≤ 100 nM.

Which results are given for `CN1c2cc(OCc3cccc(F)c3F)nc(=O)n2CC12CCCCC2` [Example 425, 7′4(2,3-difluorobenzyhoxy)-1-methyl-1H-spiro[cyclohexane-1,2′-imidazo[1,2-c]pyrimidin]-5′(3′H)-one]?
IC50 (Lp-PLA2 in human plasma): ≤ 10000 nM; IC50 [1]: ≤ 100 nM

What does the source list for `CN1c2cc(OCc3cccc(F)c3F)nc(=O)n2CC12CCCC2` [Example 426, 7′4(2,3-difluorobenzyhoxy)-1-methyl-1H-spiro[cyclopentane-1,2′-imidazo[1,2-c]pyrimidin]-5′(3′H)-one]?
IC50 (Lp-PLA2 in human plasma): ≤ 100 nM; IC50 [1]: ≤ 100 nM

How did the IC50 (Lp-PLA2 in human plasma) turn out when `CN1c2cc(OCc3ccc(F)cc3F)nc(=O)n2CC12CCCCC2` [Example 427, 7′4(2,4-difluorobenzyhoxy)-1-methyl-1H-spiro[cyclohexane-1,2′-imidazo[1,2-c]pyrimidin]-5′(3′H)-one] was run?
The IC50 was ≤ 10000 nM.

What about the IC50 [1] of the same compound?
The IC50 was ≤ 100 nM.

What does the source list for `CN1c2cc(OCc3cc(F)c(F)cc3F)nc(=O)n2CC12CCCCC2` [Example 428, 1-methyl-7′-((2,4,5-trifluorobenzyl)oxy)-1′H-spiro[cyclohexane-1,2′-imidazo[1,2-c]pyrimidin]-5′(3′H)-one]?
IC50 (Lp-PLA2 in human plasma): ≤ 10000 nM; IC50 [1]: ≤ 100 nM

Which IC50 (Lp-PLA2 in human plasma) does the source give for `CN1c2cc(OCc3cc(F)c(F)cc3F)nc(=O)n2CC12CCC2` [Example 429, 1-methyl-7′-((2,4,5-trifluorobenzyl)oxy)-1′H-spiro[cyclobutane-1,2′-imidazo[1,2-c]pyrimidin]-5′(3′H)-one] here?
The IC50 was ≤ 10000 nM.

What about the IC50 [1] of the same compound?
Its IC50 is ≤ 100 nM.

For `CN(Cc1ccc(F)cc1F)c1cc2n(c(=O)n1)C[C@@H]1CCCCN21` [Example E61, (S)-3-((2,4-Difluorobenzyl)(methyl)amino)-6,7,8,9,9a,10-hexahydro-1H-pyrido[1′,2′:3,4] imidazo[1,2-c]pyrimidin-1-one], which IC50 [1] is on record?
The IC50 was ≤ 100 nM.

How did the IC50 [1] turn out when `O=c1nc(OCc2cc(F)c(Oc3ccnc(C(F)(F)F)c3)c(F)c2)cc2n1C[C@H]1CCCN21` [Example E67, (R)-3-((3,5-difluoro-4-((2-(trifluoromethyl)pyridin-4-yl)oxy)benzyl)oxy)-7,8,8a, 9-tetra hydropyrrolo[1′,2′:3,4]imidazo[1,2-c]pyrimidin-1(6H)-one] was run?
Its IC50 is ≤ 1 nM.

Which IC50 [1] does the source give for `O=c1nc(OCc2cc(F)c(Oc3ccnc(C(F)(F)F)c3)c(F)c2)cc2n1C[C@@H]1CCCN21` [Example E71, (S)-3-((3,5-difluoro-4-((2-(trifluoromethyl)pyridin-4-yl)oxy)benzyl)oxy)-7,8,8a, 9-tetra hydropyrrolo[1′,2′:3,4]imidazo[1,2-c]pyrimidin-1(6H)-one] here?
The IC50 was ≤ 1 nM.
